Experimental data taken from the supplement of paper PMC10307832.

How the values were obtained:
Assay in all cases: relative viability (nuclei count vs DMSO), 5 days (fraction); higher = more cells survive
[1] = system: UMC-11
Outline: (§1)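 Cells from lung cancer lines were seeded into 1536-well plates and, one day later, dosed by pin tool. Treatments were either a single drug or a fixed dose of an anchor drug with five library-drug doses (not always all listed) in √10 steps. After 5 days, nuclei were stained in a one-step fixation (final 0.05% Triton X-100, 1% formaldehyde, 1 ug/ml Hoechst) and counted on 4× images, and relative viability is the treated-to-vehicle nuclei ratio, as the median of duplicate plates.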

[2] = system: NCI-H1734
Outline: as §1

[3] = system: SK-LU-1
Outline: as §1

[4] = system: COR-L23
Outline: as §1

[5] = system: LXF-289
Outline: as §1

[6] = system: NCI-H2085
Outline: as §1

[7] = system: RERF-LC-KJ
Outline: as §1

[8] = system: NCI-H1437
Outline: as §1

[9] = system: NCI-H1651
Outline: as §1

[10] = system: NCI-H3122
Outline: as §1

[11] = system: NCI-H23
Outline: as §1

[12] = system: NCI-H647
Outline: as §1

[13] = system: A-427
Outline: as §1

[14] = system: NCI-H358
Outline: as §1

[15] = system: EKVX
Outline: as §1

[16] = system: SW 900
Outline: as §1

[17] = system: NCI-H2347
Outline: as §1

[18] = system: NCI-H322M
Outline: as §1

[19] = system: NCI-H460
Outline: as §1

[20] = system: NCI-H2087
Outline: as §1

[21] = system: LK-2
Outline: as §1

[22] = system: NCI-H2405
Outline: as §1

[23] = system: H3255
Outline: as §1

[24] = system: PC-14
Outline: as §1

[25] = system: NCI-H1993
Outline: as §1

Nc1cccc2c1CN(C1CCC(=O)NC1=O)C2=O (stereo not drawn) [Lenalidomide] + Cc1cc(Nc2cc(N3CCN(C)CC3)nc(Sc3ccc(NC(=O)C4CC4)cc3)n2)n[nH]1 [Tozasertib] (partner 0.1 µM)
relative viability ([1]; first compound 0.253 µM): 0.192
relative viability ([1]; first compound 0.8 µM): 0.21
relative viability ([1]; first compound 2.53 µM): 0.192
relative viability ([1]; first compound 8 µM): 0.195
relative viability ([2]; first compound 0.253 µM): 0.312
relative viability ([2]; first compound 0.8 µM): 0.271
relative viability ([2]; first compound 2.53 µM): 0.232
relative viability ([2]; first compound 8 µM): 0.238
relative viability ([3]; first compound 0.253 µM): 0.376
relative viability ([3]; first compound 0.8 µM): 0.304
relative viability ([3]; first compound 2.53 µM): 0.399
relative viability ([3]; first compound 8 µM): 0.392
relative viability ([4]; first compound 0.253 µM): 0.255
relative viability ([4]; first compound 0.8 µM): 0.238
relative viability ([4]; first compound 2.53 µM): 0.229
relative viability ([4]; first compound 8 µM): 0.29
relative viability ([5]; first compound 0.253 µM): 0.206
relative viability ([5]; first compound 0.8 µM): 0.191
relative viability ([5]; first compound 2.53 µM): 0.25
relative viability ([5]; first compound 8 µM): 0.229
relative viability ([6]; first compound 0.253 µM): 0.819
relative viability ([6]; first compound 0.8 µM): 0.886
relative viability ([6]; first compound 2.53 µM): 0.938
relative viability ([6]; first compound 8 µM): 0.878
relative viability ([7]; first compound 0.253 µM): 0.507
relative viability ([7]; first compound 0.8 µM): 0.566
relative viability ([7]; first compound 2.53 µM): 0.515
relative viability ([7]; first compound 8 µM): 0.568
relative viability ([8]; first compound 0.253 µM): 0.432
relative viability ([8]; first compound 0.8 µM): 0.443
relative viability ([8]; first compound 2.53 µM): 0.441
relative viability ([8]; first compound 8 µM): 0.47
relative viability ([9]; first compound 0.253 µM): 0.749
relative viability ([9]; first compound 0.8 µM): 0.772
relative viability ([9]; first compound 2.53 µM): 0.819
relative viability ([9]; first compound 8 µM): 0.815
relative viability ([10]; first compound 0.253 µM): 0.39
relative viability ([10]; first compound 0.8 µM): 0.416
relative viability ([10]; first compound 2.53 µM): 0.406
relative viability ([10]; first compound 8 µM): 0.522
relative viability ([11]; first compound 0.253 µM): 0.438
relative viability ([11]; first compound 0.8 µM): 0.343
relative viability ([11]; first compound 2.53 µM): 0.723
relative viability ([11]; first compound 8 µM): 0.405
relative viability ([12]; first compound 0.253 µM): 0.339
relative viability ([12]; first compound 0.8 µM): 0.27
relative viability ([12]; first compound 2.53 µM): 0.26
relative viability ([12]; first compound 8 µM): 0.355
relative viability ([13]; first compound 0.253 µM): 0.197
relative viability ([13]; first compound 0.8 µM): 0.222
relative viability ([13]; first compound 2.53 µM): 0.22
relative viability ([13]; first compound 8 µM): 0.216
relative viability ([14]; first compound 0.253 µM): 0.12
relative viability ([14]; first compound 0.8 µM): 0.107
relative viability ([14]; first compound 2.53 µM): 0.103
relative viability ([14]; first compound 8 µM): 0.0989
relative viability ([15]; first compound 0.253 µM): 0.396
relative viability ([15]; first compound 0.8 µM): 0.41
relative viability ([15]; first compound 2.53 µM): 0.415
relative viability ([15]; first compound 8 µM): 0.372
relative viability ([16]; first compound 0.253 µM): 0.544
relative viability ([16]; first compound 2.53 µM): 0.635
relative viability ([16]; first compound 8 µM): 0.616
relative viability ([17]; first compound 0.253 µM): 0.633
relative viability ([17]; first compound 0.8 µM): 0.414
relative viability ([17]; first compound 2.53 µM): 0.643
relative viability ([17]; first compound 8 µM): 0.599
relative viability ([18]; first compound 0.253 µM): 0.471
relative viability ([18]; first compound 0.8 µM): 0.566
relative viability ([18]; first compound 2.53 µM): 0.49
relative viability ([18]; first compound 8 µM): 0.439
relative viability ([19]; first compound 0.253 µM): 0.393
relative viability ([19]; first compound 0.8 µM): 0.396
relative viability ([19]; first compound 2.53 µM): 0.49
relative viability ([19]; first compound 8 µM): 0.587
relative viability ([20]; first compound 0.253 µM): 0.24
relative viability ([20]; first compound 0.8 µM): 0.226
relative viability ([20]; first compound 2.53 µM): 0.277
relative viability ([20]; first compound 8 µM): 0.242
relative viability ([21]; first compound 0.253 µM): 0.175
relative viability ([21]; first compound 0.8 µM): 0.197
relative viability ([21]; first compound 2.53 µM): 0.164
relative viability ([21]; first compound 8 µM): 0.135
relative viability ([22]; first compound 0.253 µM): 0.738
relative viability ([22]; first compound 0.8 µM): 0.766
relative viability ([22]; first compound 2.53 µM): 0.778
relative viability ([22]; first compound 8 µM): 0.78
relative viability ([23]; first compound 0.253 µM): 0.602
relative viability ([23]; first compound 0.8 µM): 0.79
relative viability ([23]; first compound 2.53 µM): 0.662
relative viability ([23]; first compound 8 µM): 0.536
relative viability ([24]; first compound 0.253 µM): 0.629
relative viability ([24]; first compound 0.8 µM): 0.696
relative viability ([24]; first compound 2.53 µM): 0.706
relative viability ([24]; first compound 8 µM): 0.738
relative viability ([25]; first compound 0.253 µM): 0.529
relative viability ([25]; first compound 0.8 µM): 0.572
relative viability ([25]; first compound 2.53 µM): 0.618
relative viability ([25]; first compound 8 µM): 0.524

Nc1cccc2c1CN(C1CCC(=O)NC1=O)C2=O (stereo not drawn) [Lenalidomide] + Cc1nc(Nc2ncc(C(=O)Nc3c(C)cccc3Cl)s2)cc(N2CCN(CCO)CC2)n1 [Dasatinib] (partner 0.075 µM)
relative viability ([1]; first compound 0.253 µM): 0.452
relative viability ([1]; first compound 0.8 µM): 0.456
relative viability ([1]; first compound 2.53 µM): 0.542
relative viability ([1]; first compound 8 µM): 0.43
relative viability ([2]; first compound 0.253 µM): 0.506
relative viability ([2]; first compound 0.8 µM): 0.474
relative viability ([2]; first compound 2.53 µM): 0.562
relative viability ([2]; first compound 8 µM): 0.4
relative viability ([3]; first compound 0.253 µM): 0.175
relative viability ([3]; first compound 0.8 µM): 0.206
relative viability ([3]; first compound 2.53 µM): 0.178
relative viability ([3]; first compound 8 µM): 0.143
relative viability ([4]; first compound 0.253 µM): 0.541
relative viability ([4]; first compound 0.8 µM): 0.507
relative viability ([4]; first compound 2.53 µM): 0.63
relative viability ([4]; first compound 8 µM): 0.569
relative viability ([5]; first compound 0.253 µM): 0.235
relative viability ([5]; first compound 0.8 µM): 0.347
relative viability ([5]; first compound 2.53 µM): 0.234
relative viability ([5]; first compound 8 µM): 0.213
relative viability ([6]; first compound 0.253 µM): 0.253
relative viability ([6]; first compound 0.8 µM): 0.259
relative viability ([6]; first compound 2.53 µM): 0.243
relative viability ([6]; first compound 8 µM): 0.214
relative viability ([7]; first compound 0.253 µM): 0.777
relative viability ([7]; first compound 0.8 µM): 0.746
relative viability ([7]; first compound 2.53 µM): 0.828
relative viability ([7]; first compound 8 µM): 0.793
relative viability ([8]; first compound 0.253 µM): 0.536
relative viability ([8]; first compound 0.8 µM): 0.45
relative viability ([8]; first compound 2.53 µM): 0.485
relative viability ([8]; first compound 8 µM): 0.442
relative viability ([9]; first compound 0.253 µM): 0.386
relative viability ([9]; first compound 0.8 µM): 0.419
relative viability ([9]; first compound 2.53 µM): 0.617
relative viability ([9]; first compound 8 µM): 0.375
relative viability ([10]; first compound 0.253 µM): 0.897
relative viability ([10]; first compound 0.8 µM): 0.991
relative viability ([10]; first compound 2.53 µM): 0.746
relative viability ([10]; first compound 8 µM): 0.677
relative viability ([11]; first compound 0.253 µM): 0.857
relative viability ([11]; first compound 0.8 µM): 0.543
relative viability ([11]; first compound 2.53 µM): 0.97
relative viability ([11]; first compound 8 µM): 0.687
relative viability ([12]; first compound 0.253 µM): 0.14
relative viability ([12]; first compound 0.8 µM): 0.176
relative viability ([12]; first compound 2.53 µM): 0.319
relative viability ([12]; first compound 8 µM): 0.129
relative viability ([13]; first compound 0.253 µM): 0.58
relative viability ([13]; first compound 0.8 µM): 0.851
relative viability ([13]; first compound 2.53 µM): 0.752
relative viability ([13]; first compound 8 µM): 0.644
relative viability ([14]; first compound 0.253 µM): 0.196
relative viability ([14]; first compound 0.8 µM): 0.235
relative viability ([14]; first compound 2.53 µM): 0.19
relative viability ([14]; first compound 8 µM): 0.165
relative viability ([15]; first compound 0.253 µM): 0.613
relative viability ([15]; first compound 0.8 µM): 0.495
relative viability ([15]; first compound 2.53 µM): 0.575
relative viability ([15]; first compound 8 µM): 0.499
relative viability ([16]; first compound 0.253 µM): 0.498
relative viability ([16]; first compound 2.53 µM): 0.606
relative viability ([16]; first compound 8 µM): 0.828
relative viability ([17]; first compound 0.253 µM): 0.264
relative viability ([17]; first compound 0.8 µM): 0.365
relative viability ([17]; first compound 2.53 µM): 0.286
relative viability ([17]; first compound 8 µM): 0.214
relative viability ([18]; first compound 0.253 µM): 0.262
relative viability ([18]; first compound 0.8 µM): 0.279
relative viability ([18]; first compound 2.53 µM): 0.254
relative viability ([18]; first compound 8 µM): 0.253
relative viability ([19]; first compound 0.253 µM): 0.597
relative viability ([19]; first compound 0.8 µM): 0.473
relative viability ([19]; first compound 2.53 µM): 0.673
relative viability ([19]; first compound 8 µM): 0.308
relative viability ([20]; first compound 0.253 µM): 0.865
relative viability ([20]; first compound 0.8 µM): 0.851
relative viability ([20]; first compound 2.53 µM): 0.928
relative viability ([20]; first compound 8 µM): 0.829
relative viability ([21]; first compound 0.253 µM): 0.401
relative viability ([21]; first compound 0.8 µM): 0.332
relative viability ([21]; first compound 2.53 µM): 0.249
relative viability ([21]; first compound 8 µM): 0.172
relative viability ([22]; first compound 0.253 µM): 0.23
relative viability ([22]; first compound 0.8 µM): 0.185
relative viability ([22]; first compound 2.53 µM): 0.217
relative viability ([22]; first compound 8 µM): 0.21
relative viability ([23]; first compound 0.253 µM): 0.365
relative viability ([23]; first compound 0.8 µM): 0.32
relative viability ([23]; first compound 2.53 µM): 0.34
relative viability ([23]; first compound 8 µM): 0.301
relative viability ([24]; first compound 0.253 µM): 0.236
relative viability ([24]; first compound 0.8 µM): 0.28
relative viability ([24]; first compound 2.53 µM): 0.281
relative viability ([24]; first compound 8 µM): 0.304
relative viability ([25]; first compound 0.253 µM): 0.498
relative viability ([25]; first compound 0.8 µM): 0.583
relative viability ([25]; first compound 2.53 µM): 0.609
relative viability ([25]; first compound 8 µM): 0.443
